Measured values taken from patent US20260248771A1, “VALBENAZINE, A VMAT2 INHIBITOR, AS A FREE BASE A TOSYLATE OR DITOSYLATE SALT, FOR USE IN THE TREATMENT OF CHOREA ASSOCIATED WITH HUNTINGTON'S DISEASE” (Neurocrine Biosciences, Inc., priority 2022, published 2026).

Tests used:
Type in all cases: in vivo, human
[1] = system: subjects with HD; assay: Phase 3 placebo-controlled study: UHDRS total maximal chorea (TMC) score; conditions: for TMC score LS mean difference between treatment groups (valbenazine minus placebo): change from screening period baseline
Excerpt: As used herein, “Unified Huntington Disease Rating Scale” or “UHDRS” is the standard clinical assessment tool in Huntington disease. The UHDRS is divided into four domains: motor performance, cognitive function, behavioral abnormalities, and functional abilities. The motor section consists of 31 items assessing oculomotor, bradykinesia/rigidity, dystonia, chorea, and gait/balance. The items are rated from zero to four, with zero indicating normal findings and four indicating severe abnormalities. The range of the Total Motor Score (TMS) is 0 to 124, with higher scores indicating more severe motor impairment. The cognitive component includes the verbal fluency test, the symbol digit modalities test, and the Stroop test (color naming, word reading, and interference). Lower scores indicate worse cognitive performance. The behavioral assessment measures the frequency and severity of 11 items, which are rated from zero (almost never/absent) to four (almost always/severe). The items assess depression, anxiety, aggression, psychosis, and other behavioral abnormalities. The behavioral score ranges from 0 to 88, with higher scores indicating more severe psychiatric abnormalities. The functional domain comprises three components, namely the total functional capacity (TFC), the functional assessment scale (FAS), and the independence scale (IS). The TFC consists of five items (occupation, finances, domestic chores, activities of daily living, and care level) and ranges from 0 to 13. The FAS includes 25 yes/no questions about common daily tasks (range 0-25). The Independence Score (IS) measures the level of independence by one single score between 10 and 100. For all functional scores, lower scores indicate a worse function. See, Huntington Study Group, Unified Huntington Disease Rating Scale: reliability and consistency. Mov Disord. 1996; 11:136-142, which is incorporated by reference in its entirety.
(§1) A Phase 3, randomized, double-blind, placebo-controlled study to evaluate the efficacy, safety, and tolerability of once-daily valbenazine in subjects with HD was conducted. The study included a 4-week screening period, an 8-week dose-adjustment period, a 4-week maintenance period, and a final study visit 2 weeks following the final dose of study drug.
Valbenazine was supplied as orally administered capsules containing 20 or 40 mg of valbenazine (free base equivalents as the ditosylate salt). Subjects must swallow the capsules with approximately 4 ounces of water or other liquid, with or without food.
During the dose-adjustment period, the investigator could increase a subject's dose to the next dose level if, in the investigator's opinion, the subject has tolerated the study drug at the current dose. Doses were adjusted in a blinded manner; subjects receiving placebo will undergo the dose-adjustment process but will continue to receive placebo. Dose increases were allowed at visits at the end of Weeks 2, 4, and 6. If the subject had not tolerated the current dose, the investigator could decrease the subject's dose at any time during the dose adjustment period (the 40 mg dose can be decreased to 20 mg). Doses were to be decreased 1 dose level at a time and subjects could have multiple dose decreases during the dose-adjustment period; subjects who were unable to tolerate the 20 mg dose could remain in the study but study drug dosing was discontinued.
During the maintenance period (beginning after the Week 8 visit through the end of Week 12), the subject's dose was maintained. If the subject could not tolerate the maintenance dose, the investigator could reduce the subject's dose a single time by 1 dose level (unless the subject is receiving 20 mg); if the subject could not tolerate the lower dose, he/she could remain in the study but study drug dosing was discontinued.
The primary endpoint for the study was change from baseline to maintenance in the Unified Huntington Disease Rating Scale total maximal chorea (TMC). […]

[2] = system: subjects with HD; assay: Phase 3 study: Patient Global Impression of Change (PGI-C) response status
Excerpt: In certain embodiments, the method is effective to result in an improvement in Patient Global Impression of Change (PGI-C) response status, wherein subjects whose score is either a 1 (“very much improved”) or a 2 (“much improved”) in PGI-C were classified as responders. In certain embodiments, at least about 20%, such as at least about 25%, at least about 30%, at least about 35%, at least about 40%, at least about 50%, at least about 55%, were classified as responders. In certain embodiments, at least about 25% of subjects were classified as responders after 12 weeks of treatment.
as §1
Secondary endpoints included: • Clinical Global Impression of Change (CGI-C) response status ([…] of “very much improved” or “much improved”) at Week 12; • Patient Global Impression of Change (PGI-C) response status ([…] of “very much improved” or “much improved”) at Week 12; • Change from baseline to Week 12 in the Quality of Life in Neurological Disorders Upper Extremity Function; and • Change from baseline to Week 12 in the Neuro-QoL Lower Extremity Function.
(§2) Exploratory endpoints included: • Wearable movement sensors (in select sites; optional participation) using MC10 Inc., BIOSTAMP® NPOINT® system • Huntington Disease Health Index • Changes from the screening period baseline to each postbaseline study visit (Weeks 2 through 12) in the TMC based on site assessments • Changes from the screening period baseline to maintenance (the average of the Week 10 and Week 12 assessments) in the TMC based on video recording central rater assessments • CGI-C response at Weeks 2 through 10 • PGI-C response at Weeks 2 through 10 • The change from baseline to Weeks 4, 8, and 10 in the Neuro-QoL Upper Extremity Function T-score. • The change from baseline to Weeks 4, 8, and 10 in the Neuro-QoL Lower Extremity Function T-score • CGI-S at Weeks 2 through 12 • PGI-S at Weeks 2 through 12 • SF-36 at Week 12 • HD-HI at Week 10 and Week 12 • EQ-5D-5L at Week 10 and Week 12 • UHDRS scores for motor, behavior, and functional capacity assessment at Weeks 2 through 12 • Other UHDRS scores including functional assessment and independence scale at Week 12 • AS at Week 12 • Change from screening period in physical activity by movement sensors at the Week 10 visit period

[3] = system: subjects with HD; assay: Phase 3 study: Patient Global Impression of Severity (PGI-S)
Excerpt: as §2
Subjects rated the severity of their chorea at scheduled visits on a 5-point scale. The PGI-S was analyzed using the same methods as the CGI-S.

`COc1cc2c(cc1OC)[C@H]1C[C@@H](OC(=O)[C@@H](N)C(C)C)[C@H](CC(C)C)CN1CC2` [Valbenazine, (S)-2-amino-3-methyl-butyric acid (2R,3R,11bR)-3-isobutyl-9,10-dimethoxy-1,3,4,6,7,11b-hexahydro-2H-pyrido[2,1-a]isoquinolin-2-yl ester] was tested, and the “onset of improvement of chorea symptoms (TMC by study visit)” value ([1]; FIG. 4, post-hoc analysis vs placebo) was “noted as early as week 2”, the “TMC score LS mean difference between treatment groups (valbenazine minus placebo)” value ([1]; Week 2, on-site assessments) was “minus placebo) were as follows: Week 2 (−1.26 [95% CI: −2.18, −0.34],” and the “TMC score LS mean difference between treatment groups (valbenazine minus placebo)” value ([1]; Week 4, on-site assessments) was “nominal p = 0.0077), Week 4 (−2.05 [95% CI: −3.12, −0.98],”. The “TMC score LS mean difference between treatment groups (valbenazine minus placebo)” value ([1]; Week 6, on-site assessments) was “nominal p = 0.0002), Week 6 (−1.69 [95% CI: −2.83, −0.55], nominal”, the “TMC score LS mean difference between treatment groups (valbenazine minus placebo)” value ([1]; Week 8, on-site assessments) was “p = 0.0041), Week 8 (−2.29 [95% CI: −3.46, −1.13], nominal” and the “TMC score LS mean difference between treatment groups (valbenazine minus placebo)” value ([1]; Week 10, on-site assessments) was “p = 0.0002); Week 10 (−3.10 [95% CI: −4.36, −1.84], nominal”. The “TMC score LS mean difference between treatment groups (valbenazine minus placebo)” value ([1]; Week 12, on-site assessments) was “p < 0.0001), and Week 12 (−3.22 [95% CI: −4.53, −1.91], nominal”, the “placebo-adjusted mean reduction in TMC score” value ([1]; baseline to maintenance, vs placebo) was 3.2 units and the “LS mean change from screening period baseline to maintenance in TMC scores” value ([1]; central video rater assessments, valbenazine group) was “in TMC scores as assessed by the central video raters was −3.51”. The “TMC score treatment difference, screening period baseline to maintenance” value ([1]; central video rater assessments, valbenazine vs placebo) was “of −2.59 (95% CI: −3.76, −1.41); p < 0.0001 (nominal), and was consistent”, the “TMC CFSPB @ Maintenance, LS Mean” value ([1]; change from screening period baseline to maintenance (average of Week 10 and Week 12), on-site assessments, once-daily valbenazine up to 80 mg, N=64) was −4.6 and the “TMC CFSPB @ Maintenance, LS Mean, Difference” value ([1]; valbenazine vs placebo, on-site assessments) was −3.16. The “PGI-C response rate difference between treatment groups (valbenazine minus placebo)” value ([2]; Week 2) was “through 10 as follows: Week 2 (18.52% [95% CI: 5.48, 31.41],”, the “PGI-C response rate difference between treatment groups (valbenazine minus placebo)” value ([2]; Week 4) was “nominal p = 0.0042), Week 4 (18.57% [95% CI: 3.79, 32.70], nominal” and the “PGI-C response rate difference between treatment groups (valbenazine minus placebo)” value ([2]; Week 6) was “p = 0.0120), Week 6 (23.08% [95% CI: 5.60, 39.04], nominal”. The “PGI-C response rate difference between treatment groups (valbenazine minus placebo)” value ([2]; Week 8) was “p = 0.0064), Week 8 (26.44% [95% CI: 7.70, 42.49], nominal”, the “PGI-C response rate difference between treatment groups (valbenazine minus placebo)” value ([2]; Week 10) was “p = 0.0037), and Week 10 (16.94% [95% CI: −1.37, 34.63], nominal” and the “PGI-C @ week 12, % responders” value ([2]; Week 12, valbenazine group) was 52.7%. The “PGI-C @ week 12, % responders, Difference” value ([2]; Week 12, valbenazine vs placebo) was 26.3%, the “PGI-S: proportion of valbenazine-treated subjects who had no chorea symptoms” value ([3]; Week 12) was “chorea symptoms increased to about 27% from about 9% at baseline,” and the “PGI-S: proportion of valbenazine-treated subjects with moderate symptoms” value ([3]; Week 12) was about 29%. The “PGI-S: severe or very severe symptoms” value ([3]; Week 12) was “No valbenazine-treated subject had severe” and the “PGI-S: proportion of valbenazine-treated subjects with mild symptoms” value ([3]; Week 12 (remained consistent from baseline)) was 45%), and the proportion with moderate symptoms decreased from.
